Patent publication US20240246916A1, “7-NITRO-8-HYDROXYQUINOLINE DERIVATIVES, PREPARATION METHOD THEREFORE AND MEDICAL USE THEREOF” (Jiangsu Yahong Meditech Co., Ltd., priority 2021, published 2024)
≈ marks a conversion by molar mass, not a printed value.

Tests used:
Format in all cases: cell-based
[1] = test system: Acinetobacter baumannii (carbapenem-resistant clinical isolates; ATCC19606); assay: MIC by micro broth dilution (CLSI), Acinetobacter baumannii; details: for MIC50 / MIC90: ATCC19606, Clinical strain; for MIC50 / MIC90 / MIC: Acinetobacter baumannii; for MIC50: read-out: MIC50; for MIC90: read-out: MIC90; for MIC: Standard strain ATCC19606, read-out: MIC; for inhibitory effect against Acinetobacter baumannii compared with the reference drug nitroxoline: MIC comparison
Method in brief: (§1)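 CLSI broth microdilution in cation-adjusted Mueller-Hinton broth, compounds in DMSO at 128 to 0.06 mg/L. Inoculum 10^5 CFU/mL from 0.5 McFarland suspensions diluted 100-fold; 35±2 °C, 20 h in air. Clinical isolates plus ATCC/NCTC quality-control strains; interpretation per CLSI 2019 M100.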

[2] = MIC by micro broth dilution (CLSI), Klebsiella pneumoniae; details: Standard strain
Source text: The test bacteria were one strain of clinically isolated carbapenem-resistant Escherichia coli, two strains of carbapenem-resistant Acinetobacter baumannii, two strains of methicillin-resistant Staphylococcus aureus, two strains of sensitive Staphylococcus aureus, and 7 strains of Klebsiella pneumoniae. Duplicate strains isolated from the same patient were eliminated. There were also […] quality control strains Escherichia coli ATCC25922, Acinetobacter baumannii ATCC19606, Staphylococcus aureus ATCC29213, Klebsiella pneumoniae ATCC BAA-1705, ATCC 43816, ATCC BAA-2472, ATCC-BAA-1898, ATCC-BAA-1899, NCTC 13440 and ATCC-BAA-2470. There were 24 strains in total.
According to the recommendations of relevant documents of the American Clinical and Laboratory Standards Institute (CLSI), the micro broth dilution method was used to determine the MIC of the compounds of the present invention against clinically isolated strains. • 3.1 Formulation of antibacterial drug: All the compounds of the present invention were dissolved in DMSO. The drug concentration range was 128 mg/L to 0.06 mg/L. • 3.2 Culture medium: The drug susceptibility test used cation adjusted Mueller-Hinton broth (CAMHB). • 3.3 Amount of inoculum: The test bacteria cultured overnight were adjusted to 0.5 McFarland turbidity by the direct colony suspension method, and diluted 100 folds, the final inoculum amount was 10^5 CFU/mL. • 3.4 Culture conditions: The test bacteria were cultured at 35±2° C. for 20 hours in air.
The drug susceptibility test results were interpretated by reference to CLSI 2019 M100 29th edition criteria.
The quality control strains of the drug susceptibility test were Escherichia coli ATCC 25922, Acinetobacter baumannii ATCC 19606, Staphylococcus aureus ATCC 29213, Klebsiella pneumoniae ATCC BAA-1705, ATCC 43816, ATCC BAA-2472, ATCC-BAA-1898, ATCC-BAA-1899, NCTC 13440 and ATCC-BAA-2470.
The results of drug susceptibility test were statistically analyzed by WHONET software (version 5.6).

[3] = test system: Escherichia coli (carbapenem-resistant clinical isolate; ATCC25922); assay: MIC by micro broth dilution (CLSI), Escherichia coli; details: for MIC50 / MIC90: ATCC25922, Clinical strain; for MIC50 / MIC90 / MIC: Escherichia coli; for MIC50: read-out: MIC50; for MIC90: read-out: MIC90; for MIC: Standard strain ATCC25922, read-out: MIC
Method in brief: as §1

[4] = test system: Staphylococcus aureus (methicillin-resistant and sensitive clinical isolates; ATCC29213); assay: MIC by micro broth dilution (CLSI), Staphylococcus aureus; details: for MIC50 / MIC90: Clinical strain; for MIC50: read-out: MIC50; for MIC90: read-out: MIC90; for MIC: Standard strain ATCC29213, read-out: MIC
Method in brief: as §1

[5] = test system: Endothelial cell line HUVEC; assay: Inhibitory activity on cells, CellTiter-Glo viability, HUVEC; details: Homo sapiens, 72 hours treatment
Method in brief: (§2)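 HUVEC seeded at 2000, UM-UC-3 and RM-1 at 3000, LNCaP at 5000 cells/well, each in its own medium, 24 h before dosing. Compounds: 8-point 2.5-fold dilutions from 100 μmol, 72 h at 37 °C, 5% CO2. CellTiter-Glo luminescence; IC50 from growth-inhibition curves.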

[6] = test system: Bladder cancer cell line UM-UC-3; assay: Inhibitory activity on cancer cells, CellTiter-Glo viability, UM-UC-3; details: Homo sapiens, UMUC3, 72 hours treatment
Method in brief: as §2

[7] = test system: Prostate cancer cell line LNcaP; assay: Inhibitory activity on cancer cells, CellTiter-Glo viability, LNcaP; details: Homo sapiens, 72 hours treatment
Method in brief: as §2

[8] = test system: Mouse prostate cancer cell line RM1; assay: Inhibitory activity on cancer cells, CellTiter-Glo viability, RM1; details: 72 hours treatment
Method in brief: as §2

| MIC50 [1] | MIC90 [1] | MIC50 [2] | MIC90 [2] | MIC50 [3] | MIC90 [3] | MIC50 [4] | MIC90 [4] | IC50 [6] | IC50 [7] | IC50 [8] | MIC [3] | MIC [1] | MIC [4] | SMILES | IC50 [5] | inhibitory effect against Escherichia coli compared with the reference drug nitroxoline ([3]; MIC comparison) | inhibitory effect against Acinetobacter baumannii compared with the reference drug nitroxoline [1] |
| --- | --- | --- | --- | --- | --- | --- | --- | --- | --- | --- | --- | --- | --- | --- | --- | --- | --- |
| > 64 µg/mL | > 64 µg/mL | > 64 µg/mL | > 64 µg/mL | – | – | – | – | – | – | – | – | – | – | O=[N+]([O-])c1cc(I)c2cccnc2c1O [Example 3, 5-Iodo-7-nitroquinolin-8-ol] | – | – | – |
| > 64 µg/mL | > 64 µg/mL | > 64 µg/mL | > 64 µg/mL | 32 µg/mL (≈ 154 µM) | 32 µg/mL (≈ 154 µM) | 64 µg/mL (≈ 307 µM) | 64 µg/mL (≈ 307 µM) | – | – | – | – | – | – | O=[N+]([O-])c1ccc2ccc(F)nc2c1O [Example 5, 2-Fluoro-7-nitroquinolin-8-ol] | – | – | – |
| > 64 µg/mL | > 64 µg/mL | > 64 µg/mL | > 64 µg/mL | 64 µg/mL (≈ 313 µM) | 64 µg/mL (≈ 313 µM) | 64 µg/mL (≈ 313 µM) | 64 µg/mL (≈ 313 µM) | – | – | – | – | – | – | Cc1ccc2ccc([N+](=O)[O-])c(O)c2n1 [Example 6, 2-Methyl-7-nitroquinolin-8-ol] | – | – | – |
| > 64 µg/mL | > 64 µg/mL | 64 µg/mL (≈ 297 µM) | > 64 µg/mL | > 64 µg/mL | > 64 µg/mL | > 64 µg/mL | > 64 µg/mL | – | – | – | – | – | – | N#Cc1cc([N+](=O)[O-])c(O)c2ncccc12 [Example 9, 8-Hydroxy-7-nitroquinoline-5-carbonitrile] | – | – | – |
| 4 µg/mL (≈ 15.5 µM) | 4 µg/mL (≈ 15.5 µM) | – | – | 8 µg/mL (≈ 31 µM) | 8 µg/mL (≈ 31 µM) | 2 µg/mL (≈ 7.75 µM) | 4 µg/mL (≈ 15.5 µM) | 11.2 µM | 2.49 µM | 4.82 µM | 4 µg/mL (≈ 15.5 µM) | 4 µg/mL (≈ 15.5 µM) | 2 µg/mL (≈ 7.75 µM) | O=[N+]([O-])c1ccc2c(C(F)(F)F)ccnc2c1O [Example 62, 7-Nitro-4-trifluoromethylquinolin-8-ol] | 3.54 µM | comparable to that of the reference drug nitroxoline | – |
| > 128 µg/mL | > 128 µg/mL | – | – | > 128 µg/mL | > 128 µg/mL | 0.5 µg/mL (≈ 1.63 µM) | 1 µg/mL (≈ 3.26 µM) | 1.24 µM | 0.22 µM | 0.86 µM | > 128 µg/mL | > 128 µg/mL | 0.5 µg/mL (≈ 1.63 µM) | O=[N+]([O-])c1cc(Cl)c2c(C3CCCCC3)ccnc2c1O [Example 64, 5-Chloro-4-cyclohexyl-7-nitroquinolin-8-ol] | 0.44 µM | – | – |
| > 128 µg/mL | > 128 µg/mL | – | – | > 128 µg/mL | > 128 µg/mL | 1 µg/mL (≈ 3.11 µM) | 1 µg/mL (≈ 3.11 µM) | 5.43 µM | 1.36 µM | 4.29 µM | > 128 µg/mL | > 128 µg/mL | 1 µg/mL (≈ 3.11 µM) | CC1CCCN(c2ccnc3c(O)c([N+](=O)[O-])cc(Cl)c23)C1 (stereo not shown) [Example 66, 5-Chloro-4-(3-methylpiperidin-1-yl)-7-nitroquinolin-8-ol] | 4.54 µM | – | – |
| > 128 µg/mL | > 128 µg/mL | – | – | > 128 µg/mL | > 128 µg/mL | 1 µg/mL | 64 µg/mL | 9.28 µM | 8.68 µM | 13.2 µM | > 128 µg/mL | > 128 µg/mL | 2 µg/mL | Cl.O=[N+]([O-])c1cc(Cl)c2c(OCc3ccccc3)ccnc2c1O [Example 67, 4-(benzyloxy)-5-chloro-7-nitroquinolin-8-ol hydrochloride] | 3.23 µM | – | – |
| 4 µg/mL (≈ 16.5 µM) | 8 µg/mL (≈ 33 µM) | – | – | 8 µg/mL (≈ 33 µM) | 32 µg/mL (≈ 132 µM) | 2 µg/mL (≈ 8.24 µM) | 4 µg/mL (≈ 16.5 µM) | 17.5 µM | 5.38 µM | 5.19 µM | 8 µg/mL (≈ 33 µM) | 2 µg/mL (≈ 8.24 µM) | 4 µg/mL (≈ 16.5 µM) | O=[N+]([O-])c1cc(F)c2c(Cl)ccnc2c1O [Example 68, 4-Chloro-5-fluoro-7-nitroquinolin-8-ol] | 10 µM | – | comparable to that of the reference drug nitroxoline |
| > 128 µg/mL | > 128 µg/mL | – | – | > 128 µg/mL | > 128 µg/mL | 2 µg/mL (≈ 6.11 µM) | 2 µg/mL (≈ 6.11 µM) | 4.81 µM | 1.33 µM | 2.23 µM | > 128 µg/mL | > 128 µg/mL | 4 µg/mL (≈ 12.2 µM) | O=[N+]([O-])c1cc(F)c2c(N3CCC(F)(F)CC3)ccnc2c1O [Example 69, 4-(4,4-Difluoropiperidin-1-yl)-5-fluoro-7-nitroquinolin-8-ol] | 2.67 µM | – | – |
| > 128 µg/mL | > 128 µg/mL | – | – | > 128 µg/mL | > 128 µg/mL | 2 µg/mL (≈ 5.57 µM) | 4 µg/mL (≈ 11.1 µM) | 5.28 µM | 0.96 µM | 2.62 µM | > 128 µg/mL | > 128 µg/mL | 4 µg/mL (≈ 11.1 µM) | O=[N+]([O-])c1cc(F)c2c(N3CCC(C(F)(F)F)CC3)ccnc2c1O [Example 70, 5-Fluoro-7-nitro-4-(4-(trifluoromethyl)piperidin-1-yl)quinolin-8-ol] | 2.78 µM | – | – |
| > 128 µg/mL | > 128 µg/mL | – | – | > 128 µg/mL | > 128 µg/mL | 2 µg/mL (≈ 5.5 µM) | 4 µg/mL (≈ 11 µM) | 6.8 µM | 1.53 µM | 2.51 µM | > 128 µg/mL | > 128 µg/mL | 8 µg/mL (≈ 22 µM) | CCOC(=O)C1CCN(c2ccnc3c(O)c([N+](=O)[O-])cc(F)c23)CC1 [Example 71, Ethyl 1-(5-fluoro-8-hydroxy-7-nitroquinolin-4-yl)piperidine-4-carboxylate] | 2.7 µM | – | – |
| > 128 µg/mL | > 128 µg/mL | – | – | > 128 µg/mL | > 128 µg/mL | 2 µg/mL (≈ 7.19 µM) | 4 µg/mL (≈ 14.4 µM) | 6.28 µM | 1.89 µM | 3.03 µM | > 128 µg/mL | 64 µg/mL (≈ 230 µM) | 2 µg/mL (≈ 7.19 µM) | O=[N+]([O-])c1cc(F)c2c(OCC3CC3)ccnc2c1O [Example 72, 4-(Cyclopropylmethoxy)-5-fluoro-7-nitroquinolin-8-ol] | 2.65 µM | – | – |
| 8 µg/mL | 32 µg/mL | – | – | 8 µg/mL | 64 µg/mL | 1 µg/mL | 2 µg/mL | 5.04 µM | 2.31 µM | 2.63 µM | 8 µg/mL | 2 µg/mL | 1 µg/mL | Cl.O=[N+]([O-])c1cc(Cl)c2c(C(F)(F)F)ccnc2c1O [Example 73, 5-chloro-7-nitro-4-(trifluoromethyl)-quinolin-8-ol hydrochloride] | 3.45 µM | – | comparable to that of the reference drug nitroxoline |
| 128 µg/mL (≈ 484 µM) | 128 µg/mL (≈ 484 µM) | – | – | 128 µg/mL (≈ 484 µM) | 128 µg/mL (≈ 484 µM) | 0.25 µg/mL (≈ 0.945 µM) | 0.5 µg/mL (≈ 1.89 µM) | 1.57 µM | 0.53 µM | 7.64 µM | > 128 µg/mL | 4 µg/mL (≈ 15.1 µM) | 0.5 µg/mL (≈ 1.89 µM) | O=[N+]([O-])c1ccc2c(Cl)c(C3CC3)cnc2c1O [Example 74, 4-chloro-3-cyclopropyl-7-nitroquinolin-8-ol] | 1.28 µM | – | – |
| 32 µg/mL (≈ 149 µM) | 64 µg/mL (≈ 297 µM) | – | – | 32 µg/mL (≈ 149 µM) | 64 µg/mL (≈ 297 µM) | 32 µg/mL (≈ 149 µM) | 32 µg/mL (≈ 149 µM) | 38.8 µM | 15.2 µM | 13.3 µM | 32 µg/mL (≈ 149 µM) | 32 µg/mL (≈ 149 µM) | 32 µg/mL (≈ 149 µM) | N#Cc1ccnc2c(O)c([N+](=O)[O-])ccc12 [Example 76, 8-hydroxy-7-nitroquinoline-4-carbonitrile] | 18 µM | – | – |
